Experimental data reported in patent publication US5439919A, “Arylglycinamide derivatives and preparative processes therefor” (Kyorin Pharmaceutical Co., Ltd., priority 1992, dated 1995).
Where a name gives a salt, the structure may show the parent alone.

Assays:
overactive detrusor = conditions: clinically; cited from earlier work
muscarinic receptor = target: T1, muscarinic receptor (Cavia porcellus, UniProt H0W1Z3); experiment: Anticholinergic action on the specimen of isolated guinea pig ileum; conditions: affinity to muscarinic receptor, concentration converted from pA2 value obtained from Schild's plot, acetylcholine contraction
T1 construct: from tissue; host or cells: isolated ileum of male guinea pig
T1 sequence (H0W1Z3 1-590): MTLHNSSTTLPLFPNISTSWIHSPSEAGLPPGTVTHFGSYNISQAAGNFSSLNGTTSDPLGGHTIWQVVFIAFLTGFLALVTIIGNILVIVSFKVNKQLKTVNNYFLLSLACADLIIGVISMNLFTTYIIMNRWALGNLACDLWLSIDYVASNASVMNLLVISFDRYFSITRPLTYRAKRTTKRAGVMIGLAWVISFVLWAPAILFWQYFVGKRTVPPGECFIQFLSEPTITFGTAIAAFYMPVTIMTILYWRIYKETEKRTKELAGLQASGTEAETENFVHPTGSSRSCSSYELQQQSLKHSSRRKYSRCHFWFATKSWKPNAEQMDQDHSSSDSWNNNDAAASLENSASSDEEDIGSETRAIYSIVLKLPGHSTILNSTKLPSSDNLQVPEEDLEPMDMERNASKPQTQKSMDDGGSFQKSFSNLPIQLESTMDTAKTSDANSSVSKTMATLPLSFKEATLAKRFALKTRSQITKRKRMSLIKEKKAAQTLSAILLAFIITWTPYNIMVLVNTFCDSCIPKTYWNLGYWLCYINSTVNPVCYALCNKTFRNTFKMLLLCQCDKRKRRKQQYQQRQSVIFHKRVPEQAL
Procedure: A specimen (length ca. 2 cm) of male guinea pig ileum was suspended into a 10 ml-organ bath filled up with Tyrode solution. The Tyrode solution was constantly gassed with 95% O2 +5% CO2 and maintained at 37 ° C. The contraction was recorded on a pen-and-ink recorder via an isotonic transducer.
Acetylcholine was added cumulatively to the bath to obtain a consistent dose-response curve and then test compound in various concentrations was investigated on the dose-response curve of acetylcholine before and after the treatment for 5 minutes. The contraction was expressed by a ratio to the maximal contraction with acetylcholine in the absence of test compound. The affinity of test compound to the muscarinic receptor was determined by converting into the concentration from pA2 value obtained from Schild's plot.

[1] = system: urinary bladder (rhythmic bladder contraction); experiment: Inhibitory action on the rhythmic bladder contraction; assay type: in vivo; conditions: rat, intraduodenal; vs oxybutynin hydrochloride
Procedure: A male rat was fixed in a supine position under the halothane anesthesia and, a catheter with rubber balloon was inserted into urinary bladder through a small incision of apex of bladder exposed by abdominal opening along the midline and the purse-string suture was performed. The catheter was led out of the upper abdominal part sutured and a three-way stopcock was connected thereto, to one of which a syringe was connected and to other of which a pressure transducer for measuring the intravesical pressure was connected. The rhythmic bladder contraction was induced by infusion of about 0.1 to 0.3 ml of water into the balloon and, after obtaining the constant amplitude of rhythmic bladder contraction, test compound was administered intraduodenally. The inhibitory effects were estimated by the reduction in amplitude of the bladder contraction.

urinary bladder = experiment: Bladder selectivity (salivary secretion ID30 / rhythmic bladder contraction ED30); conditions: male rats, intraduodenal
Procedure: Male rats were given with small incision in the upper abdomen under urethane anesthesia and the test compound was administered intraduodenally. Thirty minutes later, 1 mg/kg of pilocarpine was administered subcutaneously. Saliva was collected on absorbent cotton kept in the mouth at every 30 minutes from the pilocarpine administration until 1.5 hours later. Antisecretory effects were estimated by the decrease in weight of absorbent cotton.

Row | Kb (muscarinic receptor) [µM] | SMILES | adverse effects (overactive detrusor) | clinical effectiveness (overactive detrusor) | inhibitory activity on bladder compared with oxybutynin hydrochloride [1] | bladder selectivity (inhibitory activity on the salivary secretion (ID30)/inhibitory activity on the rhythmic bladder contraction (ED30)) (urinary bladder)
1 | – | CCN(CC)CC#CCOC(=O)C(O)(c1ccccc1)C1CCCCC1 (stereo not shown) [Oxybutynin hydrochloride] | frequently cause the adverse effects such as dry mouth and urinary retention | effective for treatment of syndrome elicited by bladder activity | – | –
2 | 2.5 | CCN(CC)CCNC(C(=O)N(CC)CC)c1ccccc1 (stereo not shown) [Example 6] | – | – | almost equal to that of oxybutynin hydrochloride | 3
3 | 16 | CCN(CC)C(=O)C(NCCNC(C)(C)C)c1ccccc1 (stereo not drawn) [Example 2, N, N-diethyl-α-[[2-(tert-butylamino)ethyl]amino]phenylacetamide] | – | – | – | 6
4 | 2 | CCN(CC)C(=O)C(NCCNC(C)C)c1ccccc1 (stereo not shown) [Example 4] | – | – | – | 4
5 | 0.79 | CC(C)(C)NCCNC(C(=O)NC1CCCCC1)c1ccccc1 (stereo not drawn) [Example 1, N-cyclohexyl-α-[[2-(tert-butylamino)ethyl]amino]phenylacetamide] | – | – | almost equal to that of oxybutynin hydrochloride | 5
6 | 0.1 | CC(CC(c1ccccc1)c1ccccc1)NC(C)(C)C (stereo not shown) [Terodiline hydrochloride, reference compound] | frequently cause the adverse effects such as dry mouth and urinary retention | effective for treatment of syndrome elicited by bladder activity | – | 1
7 | 3.2 | CCN(CC)CCNC(C(=O)NC(C)(C)C)c1ccccc1 (stereo not drawn) [Example 3, N-tert-butyl-α-[[2-(diethylamino)ethyl]amino]phenylacetamide] | – | – | – | 4
8 | 1.3 | CCN(CC)C(=O)C(NCCN(C(C)C)C(C)C)c1ccccc1 (stereo not shown) [Example 7] | – | – | almost equal to that of oxybutynin hydrochloride | 4
9 | 6.3 | CCN(CC)CCNC(C(=O)N(C)CCc1ccc(OC)c(OC)c1)c1ccccc1 (stereo not shown) [Example 41] | – | – | – | 5
10 | 5 | CCN(CC)CCN(C)C(C(=O)NC(C)(C)C)c1ccccc1 (stereo not shown) [Example 14] | – | – | – | 4
